pIC50: −log10 of the molar value. Read-outs that look alike come from different tables or passages of the source.
Experiments:
[1] = test system: Cryptococcus neoformans DLB-1027594CNC; assay: In vitro study of inhibition of growth and lethality against yeast (MIC/MLC susceptibility test), isolate G; type: cell-based; conditions: Cryptococcus neoformans, 1st pair of lines, isolate assigned by line order
[2] = biological target: T1, NAD synthetase (recombinant protein from B. subtilis; purified) (Bacillus subtilis, UniProt P08164); assay: NAD synthetase enzyme inhibition assay (coupled enzymatic assay, HTS); type: biochemical
T1 construct: made in house

[3] = test system: Cryptococcus neoformans SLP-BC0012854; assay: In vitro study of inhibition of growth and lethality against yeast (MIC/MLC susceptibility test), isolate H; type: cell-based; conditions: Cryptococcus neoformans, 2nd pair of lines, isolate assigned by line order
[4] = test system: Candida albicans LH-000664533; assay: In vitro study of inhibition of growth and lethality against yeast (MIC/MLC susceptibility test), isolate D; type: cell-based; conditions: Candida albicans, Candida albicans, 2nd pair of lines, isolate assigned by line order
[5] = test system: Candida tropicalis ATCC 750; assay: In vitro study of inhibition of growth and lethality against yeast (MIC/MLC susceptibility test), isolate A; type: cell-based; conditions: Candida tropicalis, 2nd pair of lines, isolate assigned by line order
[6] = test system: Candida albicans (ATCC 10231); assay: Minimum Inhibitory Concentration (MIC) against yeast, broth dilution; type: cell-based; conditions: Candida albicans, ATCC10231; 37° C., 20 hours, mean of duplicate; read-out: MIC Candida albicans (ATCC 10231)
[7] = test system: Candida tropicalis ATCC 28707; assay: In vitro study of inhibition of growth and lethality against yeast (MIC/MLC susceptibility test), isolate B; type: cell-based; conditions: Candida tropicalis, 1st pair of lines, isolate assigned by line order
[8] = test system: Torulopsis glabrata ERH-BC9938274; assay: In vitro study of inhibition of growth and lethality against yeast (MIC/MLC susceptibility test), isolate F; type: cell-based; conditions: Nakaseomyces glabratus, Torulopsis glabrata, 1st pair of lines, isolate assigned by line order
[9] = test system: Candida albicans KJP-000531594; assay: In vitro study of inhibition of growth and lethality against yeast (MIC/MLC susceptibility test), isolate C; type: cell-based; conditions: Candida albicans, Candida albicans, 1st pair of lines
[10] = In vivo toxicity: intraperitoneal (IP) dosage in mice resulting in 50% lethality (LD50); conditions: mouse, in vivo; male CD-1 mice, single IP dose, observed 14 days
[11] = test system: Candida tropicalis (ATCC 28707-amphotericin B-resistant); assay: Minimum Inhibitory Concentration (MIC) against yeast, broth dilution; type: cell-based; conditions: Candida tropicalis, ATCC28707, 37° C., 20 hours, mean of duplicate
[12] = test system: Torulopsis glabrata JHC-BC9951635; assay: In vitro study of inhibition of growth and lethality against yeast (MIC/MLC susceptibility test), isolate E; type: cell-based; conditions: Torulopsis glabrata, 2nd pair of lines, isolate assigned by line order
[13] = test system: Candida tropicalis (ATCC 750); assay: Minimum Inhibitory Concentration (MIC) against yeast, broth dilution; type: cell-based; conditions: Candida tropicalis, ATCC750; 37° C., 20 hours, mean of duplicate

T1 sequence (P08164 whole entry): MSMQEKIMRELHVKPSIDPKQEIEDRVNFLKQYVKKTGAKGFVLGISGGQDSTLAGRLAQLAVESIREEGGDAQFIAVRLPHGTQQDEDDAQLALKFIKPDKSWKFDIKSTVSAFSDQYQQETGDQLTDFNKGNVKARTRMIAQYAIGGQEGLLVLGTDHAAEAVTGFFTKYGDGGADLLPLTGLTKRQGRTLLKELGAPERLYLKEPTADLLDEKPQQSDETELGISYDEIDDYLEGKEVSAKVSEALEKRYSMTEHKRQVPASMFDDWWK

COC(=O)c1cc2cc(OCc3ccccc3)ccc2n1CCCCCCCOC(=O)Cc1ccc([N+](C)(C)C)cc1.[I-] [Compound 988]
5.00: pIC50 [2]
0.024 µg/mL: MIC [13]
1 µg/mL: MIC ([1]; DLB1027594CNC, 48 h, read at 48 hr, read-out: Minimum Inhibitory Conc. (MIC), 48 hr.) | MIC ([1]; DLB1027594CNC, 72 h, read at 72 hr, read-out: Minimum Inhibitory Conc. (MIC), 72 hr.) | MIC ([3]; SLPBC0012854, 48 h, read at 48 hr, read-out: Minimum Inhibitory Conc. (MIC), 48 hr.) | MIC ([3]; SLPBC0012854, 72 h, read at 72 hr, read-out: Minimum Inhibitory Conc. (MIC), 72 hr.) | MIC ([4]; LH000664533, 24 h, read at 24 hr, read-out: Minimum Inhibitory Conc. (MIC), 24 hr.) | MFC ([5]; ATCC750, read-out: Minimum Lethal Conc. (MLC)) | MIC ([5]; ATCC750, 24 h, read at 24 hr, read-out: Minimum Inhibitory Conc. (MIC), 24 hr.) | MIC ([5]; ATCC750, 48 h, read at 48 hr, read-out: Minimum Inhibitory Conc. (MIC), 48 hr.) | MFC ([7]; ATCC28707, read-out: Minimum Lethal Conc. (MLC)) | Minimum Inhibitory Conc. (MIC), 24 hr. ([7]; read at 24 hr) | Minimum Inhibitory Conc. (MIC), 48 hr. ([7]; read at 48 hr) | MIC ([9]; KJP000531594, 24 h, read at 24 hr, isolate not given, assigned by line order and MLC of Table 4B, read-out: Minimum Inhibitory Conc. (MIC), 24 hr.) | MIC ([9]; KJP000531594, 48 h, read at 48 hr, isolate assigned by line order, read-out: Minimum Inhibitory Conc. (MIC), 48 hr.) | MFC ([9]; KJP000531594, isolate assigned by line order, read-out: Minimum Lethal Conc. (MLC)) | MIC ([12]; Nakaseomyces glabratus, JHCBC9951635, 24 h, read at 24 hr, read-out: Minimum Inhibitory Conc. (MIC), 24 hr.)
0.5 µg/mL: MIC ([7]; ATCC28707, 24 h, read at 24 hr, read-out: Minimum Inhibitory Conc. (MIC), 24 hr.) | MIC ([7]; ATCC28707, 48 h, read at 48 hr, read-out: Minimum Inhibitory Conc. (MIC), 48 hr.)
4.84: pIC50 ([2]; IC50 (μg/mL) for Inhibit. of NAD Synthetase, table of structures used in the yeast assay (Example 4))
0.1 µg/mL: MIC [6]
2 µg/mL: Minimum Inhibitory Conc. (MIC), 72 hr. ([1]; read at 72 hr) | Minimum Inhibitory Conc. (MIC), 72 hr. ([3]; read at 72 hr) | MIC ([4]; LH000664533, 48 h, read at 48 hr, read-out: Minimum Inhibitory Conc. (MIC), 48 hr.) | MFC ([4]; LH000664533, read-out: Minimum Lethal Conc. (MLC)) | MIC ([8]; ERHBC9938274, 24 h, read at 24 hr, read-out: Minimum Inhibitory Conc. (MIC), 24 hr.) | MIC ([8]; ERHBC9938274, 48 h, read at 48 hr, read-out: Minimum Inhibitory Conc. (MIC), 48 hr.) | MFC ([8]; ERHBC9938274, read-out: Minimum Lethal Conc. (MLC)) | MIC ([12]; Nakaseomyces glabratus, JHCBC9951635, 48 h, read at 48 hr, read-out: Minimum Inhibitory Conc. (MIC), 48 hr.) | MFC ([12]; Nakaseomyces glabratus, JHCBC9951635, read-out: Minimum Lethal Conc. (MLC)) | Minimum Inhibitory Conc. (MIC), 24 hr. ([12]; read at 24 hr)
4 µg/mL: MFC ([1]; DLB1027594CNC, read-out: Minimum Lethal Conc. (MLC)) | MFC ([3]; SLPBC0012854, read-out: Minimum Lethal Conc. (MLC))
135 mg/kg: LD50 at 14 days [10]
0.15 µg/mL: MIC [11]

Reference: patent publication US6673827B1, “Methods of treating fungal infections with inhibitors of NAD synthetase enzyme” (priority 1999, dated 2004)
